{"source": "ChEMBL document CHEMBL1201862", "about": "“PubChem BioAssay data set” (2004)", "key": {"Prothrombin": {"target": "Prothrombin (Homo sapiens, UniProt P00734)", "experiment": "Thrombin 1536 HTS Dose Response Confirmation. [Related pubchem assays: 1046 (Thrombin 1536 HTS; hits were confirmed in this assay)]", "assay_type": "functional"}, "[1]": {"experiment": "viability loss in Vero cells – cytotoxicity control for Vif-APOBEC3G degradation inhibitor project, dose response (AID 1117358)", "assay_type": "functional", "details": "Vero"}, "[2]": {"experiment": "Luminescence Cell-Based Dose Confirmation HTS to Identify Inhibitors of Polyadenylation.", "assay_type": "functional"}, "Protein Tat": {"target": "T1, Protein Tat (Human immunodeficiency virus type 1 group M subtype B (isolate HXB2)(HIV-1), UniProt P04608)", "T1 sequence (P04608 whole entry)": "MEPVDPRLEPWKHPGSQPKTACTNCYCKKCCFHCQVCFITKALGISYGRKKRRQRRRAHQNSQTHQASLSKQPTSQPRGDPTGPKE", "assay_type": "functional"}, "[3]": {"experiment": "viability of PTEN-deleted HCT116 cells – cell-based, HCT116 PTEN knockout, dose response (AID 1047);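 further: HCT116 colon tumor cells with PTEN knocked out; cells exposed to compound for 60 hours before readout; potency for loss of cell viability measured by luminescence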", "assay_type": "functional"}, "[4]": {"target": "Induced myeloid leukemia cell differentiation protein Mcl-1 (Homo sapiens, UniProt Q07820)", "sequence (Q07820 whole entry)": "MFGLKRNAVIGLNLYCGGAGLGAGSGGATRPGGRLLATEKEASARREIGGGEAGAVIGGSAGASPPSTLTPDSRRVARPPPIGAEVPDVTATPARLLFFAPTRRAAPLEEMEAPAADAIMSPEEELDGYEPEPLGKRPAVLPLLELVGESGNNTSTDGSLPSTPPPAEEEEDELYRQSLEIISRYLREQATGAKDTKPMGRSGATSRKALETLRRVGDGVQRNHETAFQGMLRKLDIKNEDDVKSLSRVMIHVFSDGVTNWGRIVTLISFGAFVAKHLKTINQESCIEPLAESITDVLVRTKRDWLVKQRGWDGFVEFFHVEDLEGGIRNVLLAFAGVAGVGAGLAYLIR", "assay_type": "functional"}, "[5]": {"experiment": "viability of HCT116 lacking mutant beta-catenin – cell-based, human colon tumor, dose response (AID 1045);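 further: HCT116 colon tumor cells with beta catenin knocked out; cells exposed to compound for 60 hours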", "assay_type": "functional"}, "[6]": {"experiment": "Luminescence Cell-Based Dose Response HTS to Identify Inhibitors of 5'UTR Stem-Loop Driven Prion Protein mRNA Translation in H4 Neuroglioblastoma Cells. [Related pubchem assays: 1827 (Project Summary), 1813 (Primary HTS)]", "assay_type": "functional"}, "[7]": {"experiment": "alpha-synuclein stem-loop luciferase translation blockers – H4 neuroglioma cells, luminescence, confirmation (AID 1988)", "assay_type": "functional, cell-based"}, "cells [8]": {"experiment": "cells", "assay_type": "functional, cell-based"}, "[9]": {"experiment": "luciferase reporter signal suppression in cells – H4 neuroglioma cells, luminescence, dose response (AID 1990)", "assay_type": "functional, cell-based"}, "Streptokinase A": {"target": "T2, Streptokinase A (Streptococcus pyogenes serotype M1, UniProt P10520)", "T2 sequence (P10520 whole entry)": "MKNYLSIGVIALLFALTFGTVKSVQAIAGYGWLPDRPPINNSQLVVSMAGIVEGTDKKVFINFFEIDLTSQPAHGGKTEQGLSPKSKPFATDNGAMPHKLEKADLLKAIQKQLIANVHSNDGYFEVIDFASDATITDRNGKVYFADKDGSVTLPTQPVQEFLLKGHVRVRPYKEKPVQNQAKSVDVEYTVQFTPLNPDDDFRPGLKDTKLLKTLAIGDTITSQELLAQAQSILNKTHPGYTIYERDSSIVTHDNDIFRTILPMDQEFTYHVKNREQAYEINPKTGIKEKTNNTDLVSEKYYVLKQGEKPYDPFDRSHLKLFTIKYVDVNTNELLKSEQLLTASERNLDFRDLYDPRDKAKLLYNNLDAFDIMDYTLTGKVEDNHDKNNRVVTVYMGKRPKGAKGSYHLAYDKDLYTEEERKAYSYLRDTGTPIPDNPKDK", "experiment": "viability-normalized secreted streptokinase activity reduction – plasminogen activation absorbance, OD405, dose response (AID 1914)", "assay_type": "functional, Streptococcus pyogenes M1 GAS"}, "[10]": {"experiment": "Luminescence-based dose response cell-based high throughput screening assay for cytotoxic compounds using the IEC-6 intestinal epithelial cell line. [Related pubchem assays: 1858 (Summary AID.), 1825 (Counterscreen.), 1907 (Confirmation screen.)]", "assay_type": "functional"}, "[11]": {"experiment": "alpha-synuclein stem-loop translation blockers – luminescence, H4 neuroglioblastoma cells, dose confirmation, confirmation (AID 2454);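 further: potency for inhibition of the luciferase signal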", "assay_type": "functional, cell-based"}, "Streptococcus": {"tested_on": "Streptococcus", "experiment": "GAS UMAA2166 growth inhibition – luminescence, BacTiterGlo, counter-screen for streptokinase expression inhibitor project, dose response (AID 1915);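 further: potency for reduction of bacterial viability or growth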", "assay_type": "functional, organism-based"}, "Fatty acid synthase [12]": {"target": "T3, Fatty acid synthase (Homo sapiens, UniProt P49327)", "T3 sequence (P49327 whole entry)": "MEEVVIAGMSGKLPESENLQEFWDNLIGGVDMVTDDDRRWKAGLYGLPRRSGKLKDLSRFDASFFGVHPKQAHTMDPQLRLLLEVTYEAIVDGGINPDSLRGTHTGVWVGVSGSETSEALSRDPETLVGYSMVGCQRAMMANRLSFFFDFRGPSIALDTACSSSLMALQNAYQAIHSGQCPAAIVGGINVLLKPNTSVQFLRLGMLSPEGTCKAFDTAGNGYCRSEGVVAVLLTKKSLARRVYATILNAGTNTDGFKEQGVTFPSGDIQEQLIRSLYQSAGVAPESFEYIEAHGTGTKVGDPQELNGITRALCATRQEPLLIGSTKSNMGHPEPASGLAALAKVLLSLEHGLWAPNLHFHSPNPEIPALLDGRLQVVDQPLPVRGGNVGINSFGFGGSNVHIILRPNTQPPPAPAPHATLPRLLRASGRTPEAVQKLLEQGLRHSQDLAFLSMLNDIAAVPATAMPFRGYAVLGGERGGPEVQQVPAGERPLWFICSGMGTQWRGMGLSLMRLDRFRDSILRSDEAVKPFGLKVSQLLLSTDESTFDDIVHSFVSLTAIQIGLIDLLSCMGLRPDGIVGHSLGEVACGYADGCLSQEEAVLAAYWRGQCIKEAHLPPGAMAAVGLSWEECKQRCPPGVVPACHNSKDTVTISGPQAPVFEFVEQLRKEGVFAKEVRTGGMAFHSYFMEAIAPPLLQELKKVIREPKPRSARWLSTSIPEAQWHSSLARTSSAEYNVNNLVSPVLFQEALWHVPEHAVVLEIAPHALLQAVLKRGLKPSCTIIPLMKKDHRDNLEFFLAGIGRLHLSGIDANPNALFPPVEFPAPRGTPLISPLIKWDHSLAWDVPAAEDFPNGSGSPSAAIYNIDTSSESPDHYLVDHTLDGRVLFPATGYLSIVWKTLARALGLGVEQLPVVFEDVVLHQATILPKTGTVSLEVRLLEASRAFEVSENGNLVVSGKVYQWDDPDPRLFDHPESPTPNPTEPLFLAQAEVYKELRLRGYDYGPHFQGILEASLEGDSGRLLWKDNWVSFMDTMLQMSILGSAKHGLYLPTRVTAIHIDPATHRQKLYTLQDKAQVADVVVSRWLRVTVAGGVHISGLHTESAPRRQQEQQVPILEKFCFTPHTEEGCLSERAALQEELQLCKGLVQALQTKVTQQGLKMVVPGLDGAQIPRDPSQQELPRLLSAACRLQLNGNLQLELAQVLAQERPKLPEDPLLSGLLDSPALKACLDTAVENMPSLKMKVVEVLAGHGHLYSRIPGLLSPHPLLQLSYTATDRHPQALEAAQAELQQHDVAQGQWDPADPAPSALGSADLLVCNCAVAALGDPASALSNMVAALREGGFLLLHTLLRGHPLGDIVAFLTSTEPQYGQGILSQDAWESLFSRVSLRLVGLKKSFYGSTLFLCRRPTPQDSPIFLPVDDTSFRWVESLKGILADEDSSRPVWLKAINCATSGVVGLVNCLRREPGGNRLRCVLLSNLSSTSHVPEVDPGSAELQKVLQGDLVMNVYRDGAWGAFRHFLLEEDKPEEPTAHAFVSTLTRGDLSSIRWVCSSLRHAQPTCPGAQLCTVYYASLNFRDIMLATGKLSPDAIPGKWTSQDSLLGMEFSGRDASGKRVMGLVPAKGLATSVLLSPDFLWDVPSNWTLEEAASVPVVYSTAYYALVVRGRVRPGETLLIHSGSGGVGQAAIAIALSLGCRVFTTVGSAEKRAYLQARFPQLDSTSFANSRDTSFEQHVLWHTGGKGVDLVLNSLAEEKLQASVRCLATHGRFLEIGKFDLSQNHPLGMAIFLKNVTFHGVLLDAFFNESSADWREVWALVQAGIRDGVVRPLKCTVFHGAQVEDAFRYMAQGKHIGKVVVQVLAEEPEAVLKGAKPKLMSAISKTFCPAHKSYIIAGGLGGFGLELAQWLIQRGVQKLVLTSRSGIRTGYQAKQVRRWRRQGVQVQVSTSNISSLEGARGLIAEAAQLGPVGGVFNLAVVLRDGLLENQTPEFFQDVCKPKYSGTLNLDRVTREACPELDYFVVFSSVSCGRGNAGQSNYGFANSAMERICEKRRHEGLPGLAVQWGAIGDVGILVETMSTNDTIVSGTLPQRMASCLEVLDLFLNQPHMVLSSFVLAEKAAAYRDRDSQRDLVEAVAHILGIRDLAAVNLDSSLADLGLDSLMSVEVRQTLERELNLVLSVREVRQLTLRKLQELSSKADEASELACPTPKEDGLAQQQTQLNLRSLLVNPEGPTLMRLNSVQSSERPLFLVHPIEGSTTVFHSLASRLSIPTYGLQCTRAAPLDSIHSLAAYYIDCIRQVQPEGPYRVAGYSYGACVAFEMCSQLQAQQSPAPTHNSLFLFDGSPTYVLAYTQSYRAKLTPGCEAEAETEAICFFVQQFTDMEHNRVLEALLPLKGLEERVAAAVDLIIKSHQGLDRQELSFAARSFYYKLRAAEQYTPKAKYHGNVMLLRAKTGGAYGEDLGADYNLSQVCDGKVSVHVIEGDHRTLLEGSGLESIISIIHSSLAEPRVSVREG", "experiment": "inhibition of human FAS-TE enzyme activity – biochemical, kinetic fluorescence intensity, dose response (AID 624326);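 further: rate of fluorescence rise from hydrolysis of a fluorogenic O-methyl fluorescein ester substrate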", "assay_type": "functional"}, "[13]": {"experiment": "luciferase reporter signal reduction – luminescence, H4-C neuroglioblastoma cells, dose response (AID 2458);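 further: H4 neuroglioblastoma cells stably carrying a luciferase reporter gene fusion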", "assay_type": "functional, cell-based"}, "[14]": {"tested_on": "Streptococcus sp. 'group A'", "experiment": "Streptococcus pyogenes SK(-)GAS viability under kanamycin – luminescence, BacTiterGlo, confirmation, counter-screen for streptokinase expression inhibitor project, dose response (AID 1900)", "assay_type": "functional, organism-based"}, "Fatty acid synthase [15]": {"target": "T3, Fatty acid synthase", "experiment": "inhibition of human FAS-TE enzyme activity – biochemical, endpoint fluorescence intensity, uHTS hits, dose response (AID 624327);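 further: fluorescence from hydrolysis of an O-methyl fluorescein acyl ester substrate by the enzyme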", "assay_type": "functional"}, "[16]": {"target": "Photoreceptor-specific nuclear receptor (Homo sapiens, UniProt Q9Y5X4)", "sequence (Q9Y5X4 whole entry)": "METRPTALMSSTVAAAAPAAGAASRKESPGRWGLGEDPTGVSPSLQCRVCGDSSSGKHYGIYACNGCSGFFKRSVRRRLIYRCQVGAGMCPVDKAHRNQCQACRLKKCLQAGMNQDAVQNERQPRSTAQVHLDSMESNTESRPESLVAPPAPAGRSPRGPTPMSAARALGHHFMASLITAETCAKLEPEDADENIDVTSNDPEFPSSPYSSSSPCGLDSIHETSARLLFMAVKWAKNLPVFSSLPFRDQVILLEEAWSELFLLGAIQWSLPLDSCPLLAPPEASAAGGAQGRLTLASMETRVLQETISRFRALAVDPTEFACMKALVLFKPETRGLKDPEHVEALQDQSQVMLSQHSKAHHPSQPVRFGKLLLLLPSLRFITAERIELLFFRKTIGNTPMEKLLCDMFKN", "assay_type": "functional, cell-based"}, "Paired box protein Pax-8": {"target": "Paired box protein Pax-8 (Homo sapiens, UniProt Q06710)", "sequence (Q06710 whole entry)": "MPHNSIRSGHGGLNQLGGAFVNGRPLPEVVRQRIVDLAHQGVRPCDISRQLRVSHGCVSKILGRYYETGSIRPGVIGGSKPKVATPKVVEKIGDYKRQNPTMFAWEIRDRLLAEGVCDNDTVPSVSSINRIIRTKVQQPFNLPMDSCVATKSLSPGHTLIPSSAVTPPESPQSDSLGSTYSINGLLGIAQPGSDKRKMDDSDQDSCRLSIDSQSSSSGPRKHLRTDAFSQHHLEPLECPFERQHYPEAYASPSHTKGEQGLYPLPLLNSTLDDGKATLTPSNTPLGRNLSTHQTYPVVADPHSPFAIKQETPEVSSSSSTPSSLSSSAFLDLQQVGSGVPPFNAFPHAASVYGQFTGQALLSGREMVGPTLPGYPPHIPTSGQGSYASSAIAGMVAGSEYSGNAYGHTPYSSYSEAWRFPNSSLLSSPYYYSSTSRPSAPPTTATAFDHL", "experiment": "PAX8 transcriptional activity inhibition in RMG-I – RMG-I cells, luciferase, cherry-pick, dose response (AID 687027);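 further: luciferase reporter driven by Pax8 target thyroperoxidase promoter measured by SteadyGlo luminescence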", "assay_type": "functional, cell-based"}, "cells [17]": {"experiment": "cells", "assay_type": "functional"}, "Fibrinogen beta chain [18]": {"target": "T4, Fibrinogen beta chain (Homo sapiens, UniProt P02675)", "T4 sequence (P02675 whole entry)": "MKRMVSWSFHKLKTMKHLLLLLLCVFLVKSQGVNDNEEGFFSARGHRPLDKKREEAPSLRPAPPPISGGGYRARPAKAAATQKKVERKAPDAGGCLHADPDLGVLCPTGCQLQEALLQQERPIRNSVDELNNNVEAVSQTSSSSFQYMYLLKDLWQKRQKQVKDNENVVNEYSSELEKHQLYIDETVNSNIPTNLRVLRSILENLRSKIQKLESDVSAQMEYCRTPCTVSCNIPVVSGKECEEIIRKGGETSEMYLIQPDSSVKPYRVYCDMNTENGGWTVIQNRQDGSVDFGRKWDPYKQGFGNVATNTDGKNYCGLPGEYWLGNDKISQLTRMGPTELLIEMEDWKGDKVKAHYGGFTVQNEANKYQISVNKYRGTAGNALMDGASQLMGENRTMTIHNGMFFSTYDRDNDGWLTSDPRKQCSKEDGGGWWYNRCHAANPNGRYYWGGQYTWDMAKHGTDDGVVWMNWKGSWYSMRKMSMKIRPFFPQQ", "experiment": "Fluorescence polarization-based biochemical high throughput dose response assay to identify inhibitors that disrupt the binding of a cyclic peptide (Tn7) to the fibrin proteolytic product D-Dimer and fragment E complex [DD(E )]."}, "Fibrinogen beta chain [19]": {"target": "T4, Fibrinogen beta chain", "experiment": "Fluorescence polarization-based biochemical high throughput dose response assay to identify inhibitors that disrupt the binding of a cyclic peptide (Tn6) to the fibrin proteolytic product D-Dimer and fragment E complex [DD(E )]."}}, "note": "Calls of active or inactive are those of the source."}
{"smiles": "Cc1ccc(NC(=O)c2ccc(OC(=O)COc3cccc(Cl)c3)cc2)cc1", "values": [{"measurement": "IC50", "setting": "Prothrombin", "value": "0.596 µM (active)"}]}
{"smiles": "CC(=O)Nc1ccc(S(=O)(=O)N2CCN(CCCOc3ccccc3Cl)CC2)cc1", "values": [{"measurement": "CC50", "setting": "[1]", "value": "> 40 µM (active)"}]}
{"smiles": "Cc1cc2c(cc1S(=O)(=O)N(C)c1ccccc1)n(C)c(=O)n2C", "values": [{"measurement": "EC50", "setting": "[2]", "value": "> 120 µM (not active)"}]}
{"smiles": "O=C1NC(=S)N/C1=C/c1ccc(-c2c(Br)cc([N+](=O)[O-])cc2Br)o1", "values": [{"measurement": "IC50", "setting": "Protein Tat", "value": "> 100 µM (active)"}, {"measurement": "EC50", "setting": "[3]", "value": "40.5 µM (active)"}, {"measurement": "CC50", "setting": "[1]", "value": "> 40 µM (active)"}, {"measurement": "IC50", "setting": "[4]", "value": "2.48 µM (active)"}, {"measurement": "EC50", "setting": "[5]", "value": "35.2 µM (active)"}]}
{"smiles": "CC(C)N1CCc2c(sc(NC(=O)c3ccc([N+](=O)[O-])o3)c2C(N)=O)C1", "values": [{"measurement": "EC50", "setting": "[6]", "value": "< 0.1 µM (active)"}, {"measurement": "EC50", "setting": "[7]", "value": "0.145 µM (active)"}, {"measurement": "EC50", "setting": "cells [8]", "value": "0.496 µM (active)"}, {"measurement": "EC50", "setting": "[9]", "value": "4.38 µM (active)"}, {"measurement": "EC50", "setting": "Streptokinase A", "value": "> 150 µM (not active)"}, {"measurement": "IC50", "setting": "[10]", "value": "1.32 µM (active)"}, {"measurement": "EC50", "setting": "[11]", "value": "0.953 µM (active)"}, {"measurement": "EC50", "setting": "Streptococcus", "value": "8.99 µM (active)"}, {"measurement": "IC50", "setting": "Fatty acid synthase [12]", "value": "5.65 µM (active)"}, {"measurement": "EC50", "setting": "[13]", "value": "0.3 µM (active)"}, {"measurement": "EC50", "setting": "[14]", "value": "3.19 µM (active)"}, {"measurement": "IC50", "setting": "Fatty acid synthase [15]", "value": "6.27 µM (active)"}, {"measurement": "IC50", "setting": "[16]", "value": "4.58 µM (active)"}, {"measurement": "AC50", "setting": "Paired box protein Pax-8", "value": "1.16 µM (active)"}]}
{"smiles": "COc1cccc2cc(-c3nc4ccccc4o3)c(=O)oc12", "values": [{"measurement": "IC50", "setting": "cells [17]", "value": "14.9 µM (active)"}, {"measurement": "EC50", "setting": "[2]", "value": "> 120 µM (not active)"}]}
{"smiles": "Cc1cc(C)c(S(=O)(=O)NCCn2c(C)cc3ccccc32)c(C)c1", "values": [{"measurement": "IC50", "setting": "Fibrinogen beta chain [18]", "value": "> 83.3 µM (inactive)"}, {"measurement": "IC50", "setting": "Fibrinogen beta chain [19]", "value": "15.1 µM (inactive)"}]}
